Here are results for 7 compounds from patent publication US20200223839A1, “FLUORO-CONTAINING COMPOUNDS, USE AND PREPARATION THEREOF” (JIANGSU YINGKEBEITA YIYAOKEJI CO. LTD, priority 2017, published 2020).

The term IC50 denotes the concentration that inhibits the measured activity by half. High values mean lower potency, low ones higher potency.

The test system of one data set is HCC1937. The data set is described as follows: Cell culture and cytotoxicity assay (CTG), HCC1937. The note with it: Homo sapiens, HCC1937, exposure 72 hours. The data set is classed as cell-based. Here is the method: (§1) The assayed compounds each was dissolved in DMSO with a final concentration of 10 mM or 40 mM and stored at −20° C. Tumor cell lines A549 (7,000 cells/well), BT474 (12,000 cells/well), MDA-MB-468 (12,000 cells/well), and HCC1937 (6,000 cells/well) were seeded on 96-well plates. And the cells were pre-incubated at 37° C./5% CO2 for 24 hours. The cells were exposed to different concentrations of the assay compounds (from 400 μM to 782 nM, from 200 μM to 391 nM, from 100 μM to 196 nM, and from 50 μM to 98 nM) for the following time:
(§2) After incubation, 100 μL from each well was discarded and CTG base (Proega, G7571, 50 μL) was added and the mixture was agitated for 2 minutes. The mixtures were stored in a dark room for 10 minutes and the viability was analyzed with Multiskan microplate reader.

The test system of a further data set is MDA-MB-468. The experiment in a line: Cell culture and cytotoxicity assay (CTG), MDA-MB-468. The data set is classed as cell-based, human. The conditions noted are these: Homo sapiens; MDA-MB-468, exposure 72 hours, CTG. How it is done: as §1, §2
The test system of another data set is BT474. The experiment in a line: Cell culture and cytotoxicity assay (CTG), BT474. The data set is classed as cell-based. The note with it: Homo sapiens, BT-474, BT474, exposure 96 hours. How it is done:
as §1, §2

The next data set deals with MDA-MB-468 cell line. The data set is described as follows: Anti-tumor activity against MDA-MB-468 cell line (CCK-8 test). In kind it is cell-based. The conditions noted are these: Homo sapiens, MDA-MB-468, 72 h. How it is done:
A cryo tube was removed from liquid nitrogen. As quickly as possible, the cells were thawed by placing the vial in a 37° C. water bath and gently shaking the vials. The cells were transferred to medium tube, which containing 5 mL medium, and were centrifuged at 1000 rpm for 6 min. The supernatant containing dead cells and cell debris was discarded. 1 mL of pre-warmed medium with 10% FBS was add and the solution was re-suspended. The plate was placed in 37° C. and 5% CO2 incubator. The medium was changed next day.
Cells in logarithmic growth stage were taken and culture medium was discarded. 1 mL 0.25% trypsin solution was added for twice. The trypsin solution was removed and the 0.5 ml 0.25% trypsin solution was added to the cell flask. The plate was placed in 37° C. and 5% CO2 incubator for a few minutes until the cells recovered. 1 mL medium was added to stop digestion. The liquid was transferred by pipette for experiment.
the cells were suspended and the medium was discarded. 1 mL 0.25% trypsin solution was added for twice and the trypsin digestion was centrifuged. The cells were suspended with the culture medium, count and adjusted to the appropriate concentration.
The cell suspension was added to the 96-well plate with a volume of 100 uL per well, as shown in Tab. 5, and was placed in 37° C., 5% CO2 incubator overnight.
Preparation of Compounds Working Solution.
The test compounds were dissolved in DMSO at 10 mM with sterile filter (0.22 um, nelon, JET). After filtering, the solution were continuously diluted by three times with DMSO. A total of six concentration were prepared, as shown below.
6 uL compound solution was added to 594 uL medium and the solution was added to 96-well plate as shown and cultured for 72 h in CO2 incubator.
A CCK-8 solution was prepared according to the instructions and the 96-well plate was taken out and the original medium discarded. 100 uL cck-8 solution was added to each well in the 96-well plate. Photoabsorption data were read by TECAN enzyme marker after a period of time.
IC (%)=[Ac-As]/[Ac-Ab]*100% • As: Experimental well (containing culture medium, cell, CCK-8 and compound); • Ac: Controlled well (containing culture medium, cell and CCK-8); • Ab: Blank well (Only containing medium and CCK-8).
On the technique in general: Formazan colour is commonly taken as a measure of viable cells.

For data set [1], the system named is MDA-MB-468 cells (human breast cancer) implanted in BALB/c-nu mice. The data set is described as follows: In vivo xenograft study, MDA-MB-468, tumor sizes. The conditions noted are these: MDA-MB-468 xenograft in BALB/c-nu mice, FIGS. 2 and 4. How it is done: (§3) MDA-MB-468 cells (human breast cancer) in its log growth phase were implanted in BALB/c-nu mice. When the tumor volume was approximately 50-150 mm^3, the mice were randomized into four groups, each include 8 mice. The four groups were treated with vehicle, Ref. 1, 4f, and Ref. 2, respectively, and the tumor sizes were measured two to three times each week and the mice were also weighted.

The next data set has as its system A549. The data set is described as follows: Cell culture and cytotoxicity assay (CTG), A549. The data set is classed as cell-based. The note with it: Homo sapiens, A549, exposure 72 hours. Here is the method: as §1, §2
A short description of data set [2]: In vivo xenograft study, MDA-MB-468, mice weights. The note with it: MDA-MB-468 xenograft in BALB/c-nu mice, FIGS. 3 and 5. Here is the method:
as §3

A short description of data set [3]: In vivo mouse model, MDA-MB-453, mice weights. The note with it: MDA-MB-453 mouse model, FIG. 7, dose of this group not given. From the text:
MDA-MB-453 cells (human breast cancer) were also studied in a mouse model. […] FIG. 7.

Data set [4] can be described thus: In vivo mouse model, Hep3B, mice weights. The note with it: FIG. 9, dose of this group not given. From the text:
Hep3B cells (human liver cancer) were also studied in a mouse model. […] FIG. 9.

Molecules are shown by their SMILES. A value given as a limit tells only on which side of the number the result lay.

Take `Cc1ccc(S(=O)(=O)Nc2nc3ccccc3nc2Nc2ccc3nsnc3c2)c(F)c1` [Compound 4, N-[3-(benzo[1,2,5]thiadiazol-5-ylamino)-quinoxalin-2-yl]-2-fluoro-4-methyl-benzenesulfonamide]: the values for the IC50 in the data set with HCC1937, in the data set on MDA-MB-468 and in the data set on BT474 were 114000 nM, 4250 nM and > 50000 nM, respectively.

In the case of `O=S(=O)(Nc1nc2ccccc2nc1Nc1ccc2nsnc2c1)c1ccc(F)c(F)c1` [Compound 7], inhibition in the data set with MDA-MB-468 cell line was half-maximal at 0.469 µM (IC50).

In the case of `O=S(=O)(Nc1nc2ccccc2nc1Nc1ccc2nsnc2c1)c1ccc(Br)c(F)c1` [Compound 8], the IC50 in the data set on MDA-MB-468 cell line amounted to 0.811 µM.

In turn, `COc1ccc(S(=O)(=O)Nc2nc3ccccc3nc2Nc2ccc3nsnc3c2)cc1F` [Compound 9] came in with an IC50 in the data set on MDA-MB-468 cell line of 1.4 µM.

In the case of `CCNc1ccc(S(=O)(=O)Nc2nc3ccccc3nc2Nc2ccc3nsnc3c2)cc1F` [Compound 10], the IC50 in the data set with MDA-MB-468 cell line was determined as 7.09 µM.

For `Cc1ccc(S(=O)(=O)Nc2nc3ccccc3nc2Nc2ccc3nsnc3c2)cc1` [Ref. 1, reference compound], in data set [1], the “anticancer activity (tumor sizes) versus vehicle” value was “no significant difference”. The IC50 with MDA-MB-468 cell line was 2.67 µM; in the data set on A549, > 50000 nM; with MDA-MB-468, 2060 nM; in the data set on BT474, 28200 nM. For the same compound, the “weight changes of mice” value in [2] was “no significant weight changes”.

Turning to `COc1ccc(Cl)c(Nc2nc3ccccc3nc2NS(=O)(=O)c2cccc(NC(=O)C(C)(C)N)c2)c1` [Ref. 2, reference compound], the 50% inhibitory concentration (IC50) in the data set with HCC1937 was 50000 to 100000 nM; in the data set with MDA-MB-468 cell line, 4.91 µM; in the data set on A549 it was 25000 to 50000 nM; in the data set with MDA-MB-468 it was 12500 to 25000 nM; in the data set on BT474 it was 25000 to 50000 nM. Further, the weight changes result in data set [3] and in data set [4] was “no difference in weight changes” throughout. Also, the “anticancer activity (tumor sizes) versus vehicle” value in [1] was “no significant difference”. Besides, the “weight changes of mice” value in [2] was “no significant weight changes”.
